Where two headings read alike, the source gives them in different places.
Assays:
P. aeruginosa = P. aeruginosa cytotoxicity whole cell assay (J774 cells, LDH release); conditions: relative to vehicle treated cells infected with wild type P. aeruginosa
ExsA = target: T1, ExsA (Pseudomonas aeruginosa, UniProt P26993); test: Chemiluminescence-based ExsA-DNA binding assay; parameters: species or system P. aeruginosa; conditions: Table 7, cell-free system; read-out: ExsA EC50
T1 construct: made in house
T1 sequence (P26993 1-278): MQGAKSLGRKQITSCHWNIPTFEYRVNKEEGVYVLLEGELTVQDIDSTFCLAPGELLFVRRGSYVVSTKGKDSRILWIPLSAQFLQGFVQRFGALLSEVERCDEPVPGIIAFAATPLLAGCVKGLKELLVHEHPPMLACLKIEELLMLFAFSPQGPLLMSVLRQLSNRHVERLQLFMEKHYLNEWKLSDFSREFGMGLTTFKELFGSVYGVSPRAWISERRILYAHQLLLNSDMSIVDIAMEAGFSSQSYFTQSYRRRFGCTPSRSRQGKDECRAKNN

LcrF (VirF) = LcrF (VirF) (Yersinia pestis, UniProt P28808); test: biochemical; assay type: binding, Y. pseudotuberculosis
Sequence of LcrF (VirF) (P28808 whole entry, looked up): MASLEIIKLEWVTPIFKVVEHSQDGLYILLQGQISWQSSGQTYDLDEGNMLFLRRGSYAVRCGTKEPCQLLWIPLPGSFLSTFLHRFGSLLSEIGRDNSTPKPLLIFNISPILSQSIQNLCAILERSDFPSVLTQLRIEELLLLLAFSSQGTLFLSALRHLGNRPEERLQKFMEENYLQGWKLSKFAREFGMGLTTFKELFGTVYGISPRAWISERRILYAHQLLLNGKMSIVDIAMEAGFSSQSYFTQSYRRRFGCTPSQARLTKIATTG

Y. pseudotuberculosis = test: microbe, parasite or virus in culture; conditions: Yersinia pseudotuberculosis, J774, read-out: % Cytotoxicity
[1] = EC50 for inhibition of LcrF(VirF)-DNA binding
[2] = read-out: EC50 for inhibition of LcrF(VirF)-DNA binding

Row | Compound | Cytotoxicity at 50 μg/mL Pseudomonas (P. aeruginosa) | EC50 (ExsA) [µM] | EC50 (LcrF (VirF); [1]) [µM] | activity at 50 µg/mL (Y. pseudotuberculosis) [%] | EC50 (LcrF (VirF); [2]) [µM]
1 | N#Cc1ccc2nc(-c3ccc(NC(=O)/C=C/c4ccc(-n5ccnc5)nc4)cc3)n(O)c2c1 [GV] | ** (reduced P. aeruginosa cytotoxicity below 75% of untreated, wild type levels at 50 mg/mL) | > 25 | – | – | –
2 | O=C(Cc1ccc(F)cc1)Nc1ccc(-c2nc3ccc([N+](=O)[O-])cc3n2O)cc1 [G] | – | > 25 | > 25 | – | –
3 | CC(C)c1ccc(/C=C/C(=O)Nc2ccc(-c3nc4ccc([N+](=O)[O-])cc4n3O)cc2)cc1 [CS] | – | > 25 | > 25 | < 75 | –
4 | CS(=O)(=O)c1ccc(C(=O)Nc2ccc(-c3nc4ccc([N+](=O)[O-])cc4n3O)cc2)cc1 [AG] | – | > 25 | – | – | –
5 | CCc1cc(-c2nc3ccc([N+](=O)[O-])cc3n2O)ccc1NC(=O)c1ccc(F)cc1 [DK] | – | > 25 | 10 to 25 | < 75 | –
6 | O=C(Nc1ccc(-c2nc3ccc([N+](=O)[O-])cc3n2O)nc1)c1ccc(F)cc1 [DQ] | – | > 25 | > 25 | < 75 | –
7 | CC(=NO)c1ccc2nc(-c3ccc(NC(=O)c4ccc(N(C)C)cc4)cc3)n(O)c2c1 [DF] | – | > 25 | > 25 | < 75 | –
8 | O=C(/C=C/c1ccc(C(F)(F)F)nc1)Nc1ccc(-c2nc3ccc([N+](=O)[O-])cc3n2O)cc1 [GT] | ** (reduced P. aeruginosa cytotoxicity below 75% of untreated, wild type levels at 50 mg/mL) | < 10 | – | – | –
9 | Cc1cc(-c2nc3ccc([N+](=O)[O-])cc3n2O)ccc1NC(=O)/C=C/c1ccc(F)cc1 [EN] | – | > 25 | 10 to 25 | < 75 | –
10 | O=C(O)COn1c(-c2ccc(NC(=O)c3ccc(F)cc3)cc2)nc2ccc([N+](=O)[O-])cc21 [DG, {2-[4-(4-Fluoro-benzoylamino)-phenyl]-6-nitro-benzoimidazol-1-yloxy}-acetic acid] | – | – | > 25 | < 75 | –
11 | CC(=O)c1ccc(/C=C/C(=O)Nc2ccc(-c3nc4ccc(C(C)=O)cc4n3O)cc2)cc1 [GI] | * (reduced P. aeruginosa cytotoxicity to 99-75% of untreated, wild type levels at 50 mg/mL) | > 25 | – | – | –
12 | O=C(/C=C/c1ccccc1)Nc1ccc(-c2nc3ccc([N+](=O)O)cc3n2O)cc1 [J] | – | < 10 | < 10 | < 75 | –
13 | Cc1cccc(C(=O)Nc2ccc(-c3nc4ccc([N+](=O)[O-])cc4n3O)cc2)c1 [O] | – | – | > 25 | – | –
14 | O=C(Nc1ccc2nc(-c3ccc([N+](=O)[O-])cc3)n(O)c2c1)c1ccc(F)cc1 [CW] | – | – | – | < 75 | > 25
15 | O=C(Nc1ccc(-c2nc3ccc([N+](=O)[O-])cc3n2O)cc1)c1ccc(O)cc1 [AE] | – | 10 to 25 | – | – | –
16 | O=C(Nc1ccc(-c2nc3ccncc3n2O)cc1)c1ccc(F)cc1 [EJ] | – | > 25 | – | < 75 | > 25
17 | CN(C)CCN(C)c1cc2nc(-c3ccc(NC(=O)/C=C/c4ccc(F)cc4)cc3)n(O)c2cc1[N+](=O)[O-] [FQ] | ** (reduced P. aeruginosa cytotoxicity below 75% of untreated, wild type levels at 50 mg/mL) | – | – | – | –
18 | O=C(Nc1ccc(-c2nc3ccc([N+](=O)[O-])cc3n2O)c(OCP(=O)(O)O)c1)c1ccc(F)cc1 [EC, [5-(4-Fluoro-benzoylamino)-2-(1-hydroxy-6-nitro-1H-benzoimidazol-2-yl)-phenoxymethyl]-phosphonic acid] | – | > 25 | – | < 75 | > 25
19 | CC(=O)c1ccc(C(=O)Nc2ccc(-c3nc4ccc([N+](=O)[O-])cc4n3O)cc2C)cc1 [ER] | – | – | – | < 75 | > 25
20 | CC(=O)Nc1ccc(C(=O)Nc2ccc(-c3nc4ccc([N+](=O)[O-])cc4n3O)cc2)cc1 [AC] | – | < 10 | 10 to 25 | < 75 | –
21 | O=C(CCc1ccc(F)cc1)Nc1ccc(-c2nc3ccc([N+](=O)[O-])cc3n2O)cc1 [L] | – | > 25 | > 25 | – | –
22 | NC(=NO)c1ccc2nc(-c3ccc(NC(=O)c4ccc(F)cc4)cc3)n(O)c2c1 [CX] | – | > 25 | > 25 | < 75 | –
23 | O=[N+]([O-])c1ccc2nc(-c3ccc(C#Cc4ccc(F)cc4)cc3)n(O)c2c1 [R] | – | > 25 | > 25 | – | –

Row | Compound | Cytotoxicity at 50 μg/mL Pseudomonas (P. aeruginosa) | EC50 (ExsA) [µM] | EC50 (LcrF (VirF); [1]) [µM] | activity at 50 µg/mL (Y. pseudotuberculosis) [%] | EC50 (LcrF (VirF); [2]) [µM]
24 | CCOP(=O)(COn1c(-c2ccc(NC(=O)c3ccc(F)cc3)cc2)nc2ccc([N+](=O)[O-])cc21)OCC [EG] | – | > 25 | – | < 75 | > 25
25 | O=C(Nc1ccc(-c2nc3ccc([N+](=O)[O-])cc3n2O)cc1)c1cccc(F)c1 [N] | – | – | > 25 | – | –
26 | O=C(/C=C/c1ccc(C(F)(F)F)cc1)Nc1ccc(-c2nc3ccc([N+](=O)[O-])cc3n2O)cc1 [Y] | – | 10 to 25 | < 10 | – | –
27 | O=C(Nc1ccc(-c2nc3ccc([N+](=O)[O-])cc3n2O)cc1)c1ccc2c(c1)CCCC2=O [EP] | – | > 25 | > 25 | < 75 | –
28 | N#Cc1ccc(/C=C/C(=O)Nc2ccc(-c3nc4ccc([N+](=O)[O-])cc4n3O)cc2)cc1 [X] | – | < 10 | 10 to 25 | < 75 | –
29 | O=C(Nc1ccc(-c2nc3ccc([N+](=O)[O-])cc3n2O)cc1)c1ccccc1F [Q] | – | – | > 25 | – | –
30 | O=C(/C=C/c1ccc(F)c(F)c1)Nc1ccc(-c2nc3ccc([N+](=O)[O-])cc3n2O)cc1 [W] | – | 10 to 25 | 10 to 25 | < 75 | –
31 | NC(=O)c1ccc2nc(-c3ccc(NC(=O)c4ccc(F)cc4)cc3)n(O)c2c1 [DO, 2-[4-(4-Fluoro-benzoylamino)-phenyl]-3-hdroxy-3H-benzoimidazole-5-carboxylic acid amide] | – | > 25 | – | < 75 | > 25
32 | O=C(Nc1ccc(-c2nc3ccc([N+](=O)[O-])cc3n2O)cc1)c1ccc(-n2cccn2)cc1 [AB] | – | < 10 | – | – | –
33 | C/C(=C\c1ccccc1)C(=O)Nc1ccc(-c2nc3ccc([N+](=O)[O-])cc3n2O)cc1 [CT] | – | > 25 | > 25 | < 75 | –
34 | CN1CCN(CCOc2cc3nc(-c4ccc(NC(=O)/C=C/c5ccc(F)cc5)cc4)n(O)c3cc2[N+](=O)[O-])CC1 [FR] | * (reduced P. aeruginosa cytotoxicity to 99-75% of untreated, wild type levels at 50 mg/mL) | – | – | – | –
35 | NS(=O)(=O)c1ccc(C(=O)Nc2ccc(-c3nc4ccc([N+](=O)[O-])cc4n3O)cc2)cc1 [AF] | – | 10 to 25 | – | – | –
36 | COc1ccc(/C=C/C(=O)Nc2ccc(-c3nc4ccc([N+](=O)[O-])cc4n3O)cc2)cc1 [T] | – | < 10 | < 10 | < 75 | –
37 | O=C(/C=C/c1ccc(O)cc1)Nc1ccc(-c2nc3ccc([N+](=O)[O-])cc3n2O)cc1 [AN] | – | 10 to 25 | – | – | –
38 | COc1ccccc1/C=C/C(=O)Nc1ccc(-c2nc3ccc([N+](=O)[O-])cc3n2O)cc1 [U] | – | < 10 | 10 to 25 | – | –
39 | CC(=O)c1ccc(/C=C/C(=O)Nc2ccc(-c3nc4cc(OCCN5CCN(C)CC5)c([N+](=O)[O-])cc4n3O)cc2)cc1 [FU] | ** (reduced P. aeruginosa cytotoxicity below 75% of untreated, wild type levels at 50 mg/mL) | – | – | – | –
40 | O=C(Nc1ccc(-c2nc3ccc([N+](=O)[O-])cc3n2O)cc1)c1ccc(-n2cncn2)cc1 [K] | – | < 10 | 10 to 25 | < 75 | –
41 | O=C(Nc1ccc(-c2nc3ccc([N+](=O)[O-])cc3n2OCP(=O)(O)O)cc1)c1ccc(F)cc1 [DV] | – | > 25 | – | < 75 | > 25
42 | Cc1ccccc1C(=O)Nc1ccc(-c2nc3ccc([N+](=O)[O-])cc3n2O)cc1 [P] | – | – | > 25 | – | –
43 | O=C(Nc1ccc(-c2nc3ccc([N+](=O)[O-])cc3n2O)cc1)c1ccc(N2CCOCC2)cc1 [AD] | – | 10 to 25 | – | – | –
44 | O=C(/C=C/c1ccc(F)cc1)Nc1ccc(-c2nc3ccncc3n2O)cc1 [EK] | – | > 25 | – | < 75 | > 25
45 | O=C(NCc1ccc(-c2nc3ccc([N+](=O)[O-])cc3n2O)cc1)c1ccc(F)cc1 [Z] | – | > 25 | > 25 | – | –
46 | O=C(O)c1ccc(C(=O)Nc2ccc(-c3nc4ccc([N+](=O)[O-])cc4n3O)cc2)cc1 [AI] | – | > 25 | – | – | –
